Measurements reported in US20190201538A1, “TUMOR-TARGETING PHOTOSENSITIZER-DRUG CONJUGATE, METHOD FOR PREPARING SAME AND PHARMACEUTICAL COMPOSITION FOR PREVENTING OR TREATING TUMOR CONTAINING SAME” (KOREA INSTITUTE OF SCIENCE AND TECHNOLOGY, priority 2018, published 2019).
Numbered stars: 1 amine (or outer) side, 2 acyl side, 3 side chain; on linkers, the order of the positions; unused ones are H or OH. Square brackets hold non-standard residues; d marks the D form. Peptide text beside a SMILES is read from it. * marks the point of attachment. ξ: configuration not given here. X1 = C=Cc1c(C)c2cc3nc(c(CC(=O)O)c4nc(cc5[nH]c(cc1[nH]2)c(C)c5CC)C(C)=C4C(=O)O)C(CCC(=O)*)C3C; Dolaproine = CO[C@@H]([C@@H]1CCCN1)[C@@H](C)C(=O)O; ξDil = CC[C@H](C)C([C@@H](CC(=O)[*:2])OC)N(C)[*:1]; Dil = CC[C@H](C)[C@H](NC)[C@@H](CC(=O)O)OC; PABC = O=C(OCc1ccc(N[*:1])cc1)[*:2]; X2 = C[C@@H](N*)[C@@H](O)c1ccccc1; NMeV = CN[C@H](C(=O)O)C(C)C

How the values were obtained:
caspase-3 [1] = details: 500 nM, CDM + laser
Experimental: Caspase-3 colorimetric assay and western blot were conducted to quantify enzyme expression. First, SCC7 cells were cultured on a 100 mm^2 cell culture dish until 70% confluence and further cultured for 6 hours after adding a drug (500 nM). After replacing the medium, light was irradiated with 20 mW/cm^2 for 5 minutes. After culturing further for 3 hours, the cells were recovered for analysis of caspase-3. For immunoblotting assay, the cells were treated with anti-cleaved caspase-3 antibody (1:650) and anti-PARP antibody (1:1000) purchased from Cell Signaling Technology (Danvers, Mass.) as primary antibodies and then treated with HRP-conjugated anti-rabbit IgG and anti-mouse IgG (1:1000; R&D Systems) as secondary antibodies. The blotted membrane was analyzed with a chemiluminescence imager (LAS-3000; Fuji Photo Film, Japan). Colorimetric assay of caspase-3 was conducted using a microplate reader (VERSAmaxTM, Molecular Devices Corp., USA) and a caspase-3 assay kit (Abcam, Cambridge, MA) according to the manufacturer's instructions.

[2] = Solubility in water, PBS and physiological saline; type: physicochemical; details: for solubility in water: dissolved in water alone
[3] = 1 mg/kg, tail vein
Experimental: For comparative analysis of pharmacokinetic characteristics in vivo, a tumor animal model was prepared in the same manner as in 9) using C57/BL6 mice instead of BALB/c nude mice.
After the injection, 20 μL of blood was taken from the tail vein of the tumor animal model (C57/BL6) over 12 hours at predetermined time intervals. The blood was immediately diluted to 5-fold with a 0.5 mg/kg low-molecular-weight heparin solution (DMSO:DIW cosolvent). Then, after transferring to a 96-well plate, the fluorescence intensity of the drug in the blood was measured by near-infrared (NIR) fluorescence quantification using a real-time optical imaging system equipped with a 660 nm excitation filter and a 710 nm emission filter. A calibration curve was constructed to analyze the concentration of the drug from the detected fluorescence intensity. The calibration curve was constructed by taking blood from an untreated tumor animal model and adjusting the concentration of the drug in the blood to 10^−8-10^−4.

[4] = Toxicity in vivo in tumor animal model (C3H); design: species or system mouse; number of neutrophils: unit not given here; details: for change in number of total white blood cells (WBCs): 0.5 mg/kg (CDM based on MMAE concentration); for change in body weight: 50, 200, 500 μg/kg (CDM based on MMAE concentration); for survival rate: CDM 0.25 mg/kg based on MMAE, Ce6 1 mg/kg group
Experimental: The body weight change of the tumor animal model was measured every day after treatment with the drug. […] All the blood samples were stored at 4° C. and analyzed within a day in SCL (Seoul Clinical Laboratories, Korea).
First, a tumor animal model was prepared by transplanting SCC7 tumor cells into a C3H mouse. Details are described above in Materials and methods.
6 groups were prepared as follows by injecting drugs into the tail vein of the tumor animal model. […] The total treatment period was 14 days.

[5] = self-assembled nanoparticle, DPBS 0.1 mg/mL
Experimental: Molecular structure was investigated with ChemBioDraw Ultra 12.0 (Cambridge Soft Corporation), PyMOL 1.7.0.1 (DeLano Scientific) or Discovery Studio 4.0. […] Hydrodynamic size and distribution were measured by dynamic light scattering (SZ-100, Horiba, Ltd., Japan) using a 532 nm DPSS laser.

SCC7 cells [6] = assay: Trypan blue staining after laser irradiation of a marked area; type: cell-based; details: 500 nM, 20 mW/cm^2 for 5 minutes
Experimental: […], SCC7 cells were cultured until 80% confluence on a 60 mm cell culture dish. […] After the incubation was completed, the culture medium was replaced. A laser was irradiated at 20 mW/cm^2 for 5 minutes only onto an area marked with a small circle on the culture dish. Then, the cells were treated with trypan blue for 1 minute.
(§1) The black circles indicate the sites irradiated with the laser.

SCC7 tumor [7] = system: SCC7 tumor
Experimental: In order to conduct an in-vivo animal experiment, 5-week-oil BALB/c nude mouse mice were used as an allograft tumor animal model (BALB/c). The tumor animal model (BALB/c) was prepared by preparing a cell suspension containing 1×10^6 SCC7 cells and 80 μL of a medium and injecting it into the thighbone at the flank of the BALB/c nude mouse where the effect of respiratory movement is little. Then, the mice were bred for about 8 days until the tumor grew to a size of about 80 mm^3.
The tumor animal model prepared by administering various drugs as described in 9) was subjected to photodynamic therapy and the expression level of caspase-3 in vivo was monitored. For this, NIR fluorescence images were obtained using a probe which is activated by specifically reacting with caspase-3 (Cas3p; Cy5-GDEVD-BHQ3).
After 3 hours, Cas3p was injected and its biodistribution was measured using an excitation filter (640 nm) and an emission filter (710 nm).
First, in order to clarify the stimulation-specific therapeutic effect for a tumor animal model, the same tumor tissue was transplanted into different parts (left and right sides) of the same animal model and the two tumor tissues were compared.
A tumor animal model (Balb/c nu/nu) was prepared as described above in Materials and methods 9).

[8] = physiological saline
[9] = pyrene method
From the text: Next, emission spectra were obtained at 372 nm and 383 nm using a spectrophotometer (F-7000, Hitachi High-Technologies Corporation, Japan) with an excitation wavelength of 340 nm. […] Fluorescence images were obtained at excitation (660 nm) and emission (710 nm) wavelengths.

SCC7 cells [10] = assay: Cytotoxicity upon exposure to light (CCK-8)
Experimental: Specifically, 1×10^4 cells were seeded onto each well of a 96-well plate and cultured for 24 hours. Then, the cells were incubated with a drug at 500 nM for 6 hours after washing twice with PBS. After removing the culture medium, the cells were irradiated with light at 2.4 J/cm^2. The cells were then incubated for 30 minutes in a medium containing a 10% CCK-8 solution and absorbance was measured at 450 nm using a microplate reader.
as §1

caspase-3 [11] = molecular target: caspase-3 (Homo sapiens, UniProt P42574)
caspase-3 (Homo sapiens, UniProt P42574), sequence (P42574 29-175 limits assumed, species assumed): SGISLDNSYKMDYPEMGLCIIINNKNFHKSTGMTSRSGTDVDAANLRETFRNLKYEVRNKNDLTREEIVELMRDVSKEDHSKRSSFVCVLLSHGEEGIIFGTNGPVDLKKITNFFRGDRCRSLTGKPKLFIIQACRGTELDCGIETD
caspase-3 (Homo sapiens, UniProt P42574), sequence (P42574 176-277 limits assumed, species assumed): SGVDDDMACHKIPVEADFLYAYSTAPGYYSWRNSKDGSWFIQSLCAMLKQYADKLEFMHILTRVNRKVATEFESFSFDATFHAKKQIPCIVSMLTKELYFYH
Experimental: Finally, the mixture solution was analyzed by RP-HPLC (Agilent 1200 series, Agilent Technology, USA) equipped with a UV detector.

[12] = self-assembled nanoparticle, physiological saline
Experimental: Morphology was observed by transmission electron microscopy (Talos F200X, FEI Company, USA). All the samples were treated with a 1% uranyl acetate solution to obtain negatively stained microscopic images.

SCC7 tumor [13] = assay: Biodistribution in vivo by NIR fluorescence imaging in tumor animal model; design: species or system mouse
Experimental: Near-infrared (NIR) fluorescence imaging was conducted using a real-time optical imaging system in order to evaluate biodistribution in vivo. […]
For the in-vivo experiment, a tumor animal model was prepared by injecting 1×10^6 SCC7 cells into the left flank of a nude mouse.

SCC7 tumor [14] = assay: Antitumor effect in tumor animal model (C3H); details: for tumor growth with laser: drug + 671 nm laser 25 mW/cm^2, Ce6 1 mg/kg, CDM 0.25 mg/kg based on MMAE; for damage to other organs (biopsy) / tumor cell killing in H&E biopsy: drug + laser
Experimental: For evaluation of therapeutic effect in vivo, tumor volume was measured for a tumor animal model for 14 days. When the tumor tissue grew to a size of about 80 mm^3, the tumor animal model was evaluated by dividing into 6 groups as follows.
Then, the tumor size was measured every other day.
For histological analysis, tumor tissues and organ tissues were taken from the in-vivo animal model after conducting antitumor growth analysis. The extracted tissues were washed with PBS and fixed with a 4% paraformaldehyde solution. Then, the tissues were stained with H&E (hematoxylin and eosin) and the stained tissues were embedded in paraffin and placed on glass slides after cutting into 4 μm thick slices. After removing paraffin, the tissues were stained with H&E and observed under an optical microscope (BX 51; Olympus, USA). […] The tissues were cut into 10 μm thick slices, freeze-dried and then observed under a confocal laser scanning microscope.
A He—Ne laser (671 nm) was used and the laser was irradiated at 25 mW/cm^2 three times for 10 minutes after the injection of the drug (n=6).

SCC7 cells [15] = assay: Cytotoxicity in vitro (CCK-8), with or without caspase-3; type: cell-based; details: for effect on tumor cells at 10 nM without caspase-3: not activated by caspase-3 / alone
Experimental: The cytotoxicity of a drug was evaluated by a colorimetric assay using the cell counting kit-8 (CCK-8; Dojindo Molecular Technologies, Inc., USA). […] After removing the culture medium, the plate was washed twice with PBS.

SCC7 cells [16] = details: SCC7 cells incubated with CDM, laser irradiation
Experimental: The apoptosis of the fixed cells was measured using an annexin V-FITC apoptosis detection kit (Sigma-Aldrich Co., USA). […] Then, the light-irradiated cells were treated with trypsin and stained for 30 minutes with FITC-annexin V and propidium iodide (PI) according to the manufacturer's instructions. The fluorescence images of the stained cells were obtained using a confocal laser scanning microscope (Leica TCS SP8; Leica Microsystems, Germany).

SCC7 cells [17] = details: 50 μg/mL
Experimental: Experiments were conducted using SCC7 cells as follows. Specifically, the cells were cultured in a medium containing 10% fetal bovine serum (FBS) and 1% antibiotic using a 5% CO2 incubator at 37 C. […] After the incubation was completed, the cells were washed and fixed with a 2% paraformaldehyde solution. Then, the cells were stained with 4,6-diamidino-2-phenylindole (DAPI, Invitrogen, USA).

C=Cc1c(C)c2cc3nc(c(CC(=O)O)c4nc(cc5[nH]c(cc1[nH]2)c(C)c5CC)C(C)=C4C(=O)O)C(CCC(=O)NCCCC[C@H](NC(C)=O)C(=O)NCC(=O)N[C@@H](CC(=O)O)C(=O)N[C@@H](CCC(=O)O)C(=O)N[C@H](C(=O)N[C@@H](CC(=O)O)C(=O)Nc1ccc(COC(=O)N(C)[C@H](C(=O)N[C@H](C(=O)N(C)C([C@@H](C)CC)[C@@H](CC(=O)N2CCC[C@H]2[C@H](OC)[C@@H](C)C(=O)N[C@H](C)[C@@H](O)c2ccccc2)OC)C(C)C)C(C)C)cc1)C(C)C)C3C (stereo partly shown) [CDM, Ce6-(Ac)KGDEVD-PABC-MMAE] (Ac-K(X1)GDEVD[PABC][NMeV]V[ξDil][Dolaproine]-X2)
intracellular caspase-3 level (western blot) (caspase-3 [1]): increased the intracellular concentration of caspase-3
solubility ([2]; water, PBS and physiological saline): dissolves well in all of water, PBS and physiological saline
blood level at first [3]: higher than that of Ce6
change in number of total white blood cells (WBCs) [4]: no change
number of neutrophils ([4]; 0.5 mg/kg based on MMAE concentration): 1.6±1.0000
change in body weight [4]: 4.8±0.2%
survival rate [4]: 100%
average diameter (hydrodynamic, DLS) [5]: 90.8±18.9 nm
cells killed after laser irradiation of a marked area (SCC7 cells [6]): nearby cells were also killed effectively
growth of left-side vs right-side (laser) tumor (SCC7 tumor [7]; 0.5 mg/kg, 15 days): distinct difference in the growth of the left-side and right-side tumors
caspase-3 probe (Cy5-GDEVD-BHQ3) fluorescence in tumors (SCC7 tumor [7]; CDM i.v., laser on right-side tumor only): observed only in the right-side tumor
average diameter (SEM) [8]: 50-200 nm
critical micelle concentration (CMC) [9]: about 1.382 μM
cell viability (SCC7 cells [10]; 500 nM, light irradiated from outside (laser (+))): 12.8±9.2%
cytotoxic effect compared to when the drugs are used alone (SCC7 cells [10]; after external stimulation (light irradiation or caspase-3)): ≥ 2 time
time to effective activation by caspase-3 (caspase-3 [11]; 10 μM CDM, 500 ng/mL caspase-3, 37° C.): ≤ 2 h
activation by caspase-3 in presence of caspase-3 inhibitor (Z-DEVD-FMK) (caspase-3 [11]; incubation for 2 hours): not completely activated
average diameter (TEM images) [12]: about 52.6±20.0 nm
fluorescence intensity in organs and tumor 24 hours after injection (SCC7 tumor [13]; liver, lung, spleen, kidney, heart and tumor tissues): high
fluorescence intensity in the tumor tissue relative to Ce6-injected model (SCC7 tumor [13]; mouse, in vivo): 12.8-4.2
time of highest fluorescence intensity in the tumor (SCC7 tumor [13]; tail vein injection): 6 to 12 h
tumor size with time, no laser (SCC7 tumor [14]; CDM group, laser not irradiated): no change in tumor size
tumor weight decrease compared to the CDM group and the laser group (SCC7 tumor [14]; CDM+laser group): 99.6%
tumor growth with laser (SCC7 tumor [14]): no tumor growth
damage to other organs (biopsy) (SCC7 tumor [14]): no damage to other organs
tumor cell killing in H&E biopsy (SCC7 tumor [14]): killed extensively
tumor cell growth (cell viability, CCK) (SCC7 cells [15]; 10 nM in combination with caspase-3): 50.1%
effect on tumor cells at 10 nM without caspase-3 (SCC7 cells [15]): little effect
cell survival rate (SCC7 cells [15]; 50 nM in the presence of caspase-3): 42.5%
cell survival rate (SCC7 cells [15]; 200 nM in the presence of caspase-3): 32.5%
cell survival rate (SCC7 cells [15]; 600 nM in the presence of caspase-3): 25.5%
apoptosis induction on light irradiation (SCC7 cells [16]): can induce apoptosis even with a small quantity of light
time to accumulation in the cells in an enough amount (SCC7 cells [17]): ≤ 3 h

Chlorin e6 [Ce6, reference compound]
solubility in water [2]: water insolubility
survival rate [4]: 100%
cells killed after laser irradiation of a marked area (SCC7 cells [6]): only the cells treated with a laser were killed
fluorescence in the tumor tissue (SCC7 tumor [13]; tail vein injection): hardly detected
tumor growth with laser (SCC7 tumor [14]): tumor growth-inhibiting effect
damage to other organs (biopsy) (SCC7 tumor [14]): no damage to other organs
tumor cell killing in H&E biopsy (SCC7 tumor [14]): very insignificant
effect on tumor cells at 10 nM without caspase-3 (SCC7 cells [15]): no effect

CC[C@H](C)[C@@H]([C@@H](CC(=O)N1CCC[C@H]1[C@H](OC)[C@@H](C)C(=O)N[C@H](C)[C@@H](O)c1ccccc1)OC)N(C)C(=O)[C@@H](NC(=O)[C@@H](NC)C(C)C)C(C)C [MMAE, monomethyl auristatin E] (H-[NMeV]V[Dil][Dolaproine]-X2)
solubility in water [2]: water insolubility
increase in plasma ALT ([4]; 0.5 mg/kg): 1.5 times
increase in plasma AST ([4]; 0.5 mg/kg): 2.7 times
neutrophils, times less as compared to the saline group ([4]; 0.5 mg/kg): 4.9 times
percentage of the neutrophils to the total white blood cells ([4]; 0.5 mg/kg): 2.5±1.4%
change in number of total white blood cells (WBCs) [4]: 35.7±13.8%
change in body weight [4]: 31.6±2.2%
day on which all were killed ([4]; MMAE 0.25 mg/kg): 4 days
day on which group began to die ([4]; MMAE 0.25 mg/kg): 3 days
size of lymphocytes (lymphoid tissue; white pulp) in spleen ([4]; MMAE group): significantly decreased
spleen weight decrease ([4]; MMAE group): 75±11.8%
body weight decrease ([4]; MMAE group, 0.25 mg/kg): 31.9±1.6%
cell viability (SCC7 cells [10]; treated with MMAE only): 25.8±10.1%
outcome of group during the antitumor experiment (SCC7 tumor [14]; MMAE 0.25 mg/kg only): died during the experiment because of too strong toxicity
